One block for each molecule: values may come before it.
Legend:
[1] = tested on: mGluR5; assay: functional mGluR5 antagonist assay; type: cell-based; settings: for IC50 in functional HTS: identified from the functional HTS
[2] = target: mGluR5 (Rattus norvegicus, UniProt P31424); assay: functional mGluR5 antagonist assay; type: cell-based
Chain of mGluR5 (Rattus norvegicus, UniProt P31424) (P31424 21-1203): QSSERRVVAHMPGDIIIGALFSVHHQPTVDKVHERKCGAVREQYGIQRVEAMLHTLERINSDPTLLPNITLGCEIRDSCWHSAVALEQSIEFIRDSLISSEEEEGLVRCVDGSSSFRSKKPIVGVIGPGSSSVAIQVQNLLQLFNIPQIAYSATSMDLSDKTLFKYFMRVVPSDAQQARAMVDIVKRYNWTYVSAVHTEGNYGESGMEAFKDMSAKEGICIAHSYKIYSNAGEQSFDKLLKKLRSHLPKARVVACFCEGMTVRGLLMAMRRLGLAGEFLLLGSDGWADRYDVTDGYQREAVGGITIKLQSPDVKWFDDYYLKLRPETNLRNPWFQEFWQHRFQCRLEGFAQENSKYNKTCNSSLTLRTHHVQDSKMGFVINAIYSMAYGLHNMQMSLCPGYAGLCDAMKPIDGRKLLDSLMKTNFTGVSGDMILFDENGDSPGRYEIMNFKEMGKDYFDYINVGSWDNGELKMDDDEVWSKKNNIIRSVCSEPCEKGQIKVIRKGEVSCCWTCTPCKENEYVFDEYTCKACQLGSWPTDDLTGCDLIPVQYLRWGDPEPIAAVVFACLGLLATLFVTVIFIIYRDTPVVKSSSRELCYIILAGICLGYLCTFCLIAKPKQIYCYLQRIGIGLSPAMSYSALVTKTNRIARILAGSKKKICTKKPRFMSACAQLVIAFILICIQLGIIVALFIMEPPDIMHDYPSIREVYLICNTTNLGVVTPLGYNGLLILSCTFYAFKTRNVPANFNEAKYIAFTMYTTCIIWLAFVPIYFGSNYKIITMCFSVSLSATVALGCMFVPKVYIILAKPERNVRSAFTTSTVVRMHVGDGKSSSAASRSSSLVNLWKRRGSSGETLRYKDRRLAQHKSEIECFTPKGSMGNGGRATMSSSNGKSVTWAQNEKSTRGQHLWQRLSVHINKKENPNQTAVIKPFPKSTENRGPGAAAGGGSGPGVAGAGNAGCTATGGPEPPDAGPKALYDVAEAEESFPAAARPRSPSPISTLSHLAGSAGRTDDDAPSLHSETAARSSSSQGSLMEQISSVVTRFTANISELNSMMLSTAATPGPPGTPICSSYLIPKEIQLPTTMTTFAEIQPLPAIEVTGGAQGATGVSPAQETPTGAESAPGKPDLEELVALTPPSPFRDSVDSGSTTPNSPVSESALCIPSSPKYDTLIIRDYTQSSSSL

Chain of mGluR5 (P31424 21-1203): as above

mGluR5 inhibitory activity [1]: loses all mGluR5 inhibitory activity
Compound: O=C(N1CCN(c2ccncc2)CC1)C12CC3CC(CC(C3)C1)C2 [Cmpd 20b]

IC50 in functional HTS [1]: submicromolar
Compound: O=C(N1CCN(c2ccccn2)CC1)C12CC3CC(CC(C3)C1)C2 [Cmpd 11]

IC50 ([2]; read-out: mGluR5 IC50, newly synthesized material): 150 nM
Compound: Cc1cc(C)c2c(N)c(C(=O)c3ccc(F)cc3)oc2n1 [Cmpd 12, (3-amino-4,6-dimethylfuro[2,3-b]pyridine-2-yl)(4-fluorophenyl)methanone]
% Glu Max ([2]; upon resynthesis): 1.39%

IC50 in functional HTS [1]: submicromolar
Compound: O=C(c1ccco1)N1CCCC2(CCCCC2)C1 [Cmpd 10]

— PMC3177605 (Bioorganic & medicinal chemistry letters, 2009)
